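Cultured in 96-well plates, cells were exposed to test compound for 48 hours across five concentrations. GI50 is the concentration that inhibits growth by half. TGI: total growth inhibition.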
Assays:
Assay in all cases: NCI anticancer screen, dose series, 48 h
[1] = test system: A498 renal
[2] = test system: 786-0 renal
[3] = test system: NCI-H226 lung
[4] = test system: HCT-15 colon
[5] = test system: HOP-92 NSCLC
[6] = test system: UACC-62 melanoma
[7] = test system: UO-31 renal
[8] = test system: M14 melanoma
[9] = test system: HCC-2998 colon
[10] = test system: BT-549 breast

Compound	TGI [1]	TGI [2]	TGI [3]	TGI [4]	TGI [5]	TGI [6]	TGI [7]	TGI [8]	TGI [9]	GI50 [2]	GI50 [3]	GI50 [4]	GI50 [6]	GI50 [7]	GI50 [8]	GI50 [9]	GI50 [10] [µM]	TGI [10] [µM]	GI50 [1]	GI50 [5]
Clc1ccc(C(n2cc(Br)cn2)n2cc(Br)cn2)cc1	33.1 µM	27.8 µM	22.5 µM	33.2 µM	30.6 µM	28.7 µM	20 µM	35.2 µM	31.8 µM											
CC(C)=CC1=C2C3=C(C(=O)C4(O)Oc5c(C)c6c7c(c5OC24C)[C@@H](C)CC[C@@H]7[C@@H](C)C[C@H]6C=C(C)C)C(C)CCC3C(C)C1 (stereo not given in full)		> 100 µM	> 100 µM	> 100 µM		> 100 µM	> 100 µM	> 100 µM	> 100 µM	> 100 µM	> 100 µM	> 100 µM	> 100 µM	> 100 µM	> 100 µM	> 100 µM	> 100	> 100		
CC(=O)O[C@H]1C(=O)[C@@]2(C)C(C(OC(=O)c3ccccc3)C3[C@@H](O)C(OC(=O)[C@@H](O)[C@H](NC(=O)c4ccccc4)c4ccc(C(F)(F)F)cc4)C(C)=C1C3(C)C)[C@]1(OC(C)=O)CO[C@@H]1C[C@@H]2O (stereo not given in full)		> 25 µM	> 25 µM	> 25 µM		> 25 µM	> 25 µM	> 25 µM	> 25 µM											
NC(N)=NS(=O)(=O)c1ccc(NCCc2c3ccccc3nc3ccccc23)cc1		> 100 µM	> 100 µM	> 100 µM	> 100 µM		> 100 µM	> 100 µM	> 100 µM											
COc1ccc(C2ON(c3cccc(C)n3)CC=C2C)cc1 (stereo not given)		> 100 µM	> 100 µM	> 100 µM		> 100 µM	> 100 µM	> 100 µM	> 100 µM											
O=C1C[C@@H]2/C(=C(O)\C=C\c3ccccc3)C(=O)C=C[C@@H]2O1	23.1 µM	3.49 µM	4.45 µM	3.69 µM	3.21 µM	12.2 µM	2.2 µM	2.63 µM		1.74 µM	1.94 µM	1.3 µM	3 µM	0.878 µM	0.435 µM		2.84	8.45	10.9 µM	1.59 µM
Cc1cccc(C)c1NC(=O)C(=O)Nn1c(NN)nc2ccccc2c1=O	> 100 µM	> 100 µM	> 100 µM	> 100 µM	> 100 µM	> 100 µM	> 100 µM	> 100 µM	> 100 µM											
COC(=O)c1c2cccccc-2c(Cc2c3cccccc-3c(C(=O)OC)c2O)c1O	> 100 µM	> 100 µM	> 100 µM	> 100 µM	> 100 µM	> 100 µM	> 100 µM	> 100 µM	> 100 µM											
CN(Cc1cc(C(C)(C)C)cc(Br)c1O)Cc1cc(C(C)(C)C)cc(Br)c1O	8.93 µM	13.8 µM	13.3 µM	12.1 µM	12.8 µM	12.8 µM	12.7 µM	14.9 µM										14.4		
O=C1C(=Cc2c(O)cc(O)cc2O)C(=O)c2ccccc21	98.7 µM	> 56.4 µM	> 63 µM	> 77 µM	> 58 µM	> 54.9 µM	> 100 µM	> 57.2 µM	> 56.4 µM											
Cc1cc2c([nH]c3ccccc32)c2c1OC(C)(C)C1C3CC(C)(C)Oc4c(C)cc5c6ccccc6n(c5c43)C21 (stereo not given)	> 100 µM	> 100 µM		> 100 µM	> 100 µM	> 100 µM	> 100 µM	> 100 µM	> 100 µM											
CN(C)CC/[N+]([O-])=C(/c1ccccc1)C12CC3CC(CC(C3)C1)C2	32.6 µM	26.8 µM	27.5 µM	38.8 µM	28.8 µM	27.8 µM	24.6 µM	26.8 µM	37.6 µM											
COC(C)(C)C/C=C/C(C)=C/C=C/C(C)=C\C=C\C(C)=C\C=C\C=C(C)\C=C\C=C(C)\C=C\C=C(C)\C=C\CC(C)(C)OC	> 150 µg/mL	> 150 µg/mL	> 150 µg/mL	> 150 µg/mL	> 150 µg/mL	> 150 µg/mL	> 150 µg/mL	> 150 µg/mL	> 150 µg/mL	> 150 µg/mL	> 150 µg/mL	> 150 µg/mL	> 150 µg/mL	> 150 µg/mL	> 150 µg/mL	> 150 µg/mL			> 150 µg/mL	> 150 µg/mL
O=c1cccccc1[O-].O=c1cccccc1[O-].O=c1cccccc1[O-].[La+3]	90.1 µM	30.4 µM	99 µM	> 100 µM	> 100 µM	52 µM	65.8 µM	53.8 µM	> 100 µM										23.6 µM	
O=Cc1c(O)c(C(=O)Nc2ccc3[nH]c(=O)[nH]c3c2)cc2ccccc12	> 100 µM	> 100 µM	> 100 µM	> 100 µM	> 100 µM	> 100 µM	> 100 µM	> 100 µM	> 100 µM											
Nc1nc2c3nc(Nc4ccccc4)sc3nc(=O)n2c2sc(Nc3ccccc3)nc12	> 100 µM	> 100 µM	> 100 µM	> 100 µM	> 100 µM	> 100 µM	> 100 µM	> 100 µM	> 100 µM											
Cc1cc(C)cc(NC(N)=S)c1	> 100 µM	> 100 µM	> 100 µM	38.4 µM	> 100 µM	> 100 µM	> 100 µM	> 100 µM	> 100 µM											
Cc1cc(Cl)ccc1NC(=O)CC1SC(=Nc2ccccc2Cl)NC1=O (stereo not given)	> 100 µM	> 100 µM	> 100 µM	> 100 µM	> 100 µM	> 100 µM	> 100 µM	> 100 µM	> 100 µM											
CC1OC(n2cc(F)c(=O)[nH]c2=O)C=CC1=O (stereo not given)	36.9 µM	29.4 µM	66.4 µM	46.1 µM	33.2 µM	32.4 µM	30.3 µM	34.1 µM	43.8 µM											
N#CC1CC2(CCN1C(=O)c1ccccc1)OCCO2 (stereo not given)	> 100 µM	> 100 µM	> 100 µM	> 100 µM	> 100 µM	> 100 µM	> 100 µM	> 100 µM	> 100 µM											
CN(C)c1ccc(/C=c2\sc3nc4ccccc4n3c2=O)cc1	> 100 µM	> 100 µM	> 100 µM	> 100 µM	> 100 µM	> 100 µM	> 100 µM	> 100 µM	> 100 µM											

Compound	TGI [1]	TGI [2]	TGI [3]	TGI [4]	TGI [5]	TGI [6]	TGI [7]	TGI [8]	TGI [9]	GI50 [2]	GI50 [3]	GI50 [4]	GI50 [6]	GI50 [7]	GI50 [8]	GI50 [9]	GI50 [10] [µM]	TGI [10] [µM]	GI50 [1]	GI50 [5]
CC(C)OP(=O)(NC(=S)c1ccccc1)OC(C)C	> 100 µM	> 100 µM	> 100 µM	> 100 µM	> 100 µM	> 100 µM	> 100 µM	> 100 µM	> 100 µM											
Cc1ccc(Cl)cc1NC(=O)c1sc2nc3c(cc2c1N)C(=O)CCC3	> 100 µM	> 100 µM	> 100 µM	> 100 µM	> 100 µM	> 100 µM	> 100 µM	> 100 µM	> 100 µM	> 100 µM	> 100 µM	4.79 µM	4.45 µM	> 100 µM	6.31 µM	> 100 µM			1.86 µM	> 100 µM
CC(=O)OCC1OC(n2c(-c3ccc(C)cc3)cc(-c3ccccc3)c(C#N)c2=O)C(OC(C)=O)C(OC(C)=O)C1OC(C)=O (stereo not given)		> 100 µM	> 100 µM	> 100 µM	> 100 µM	> 100 µM	> 100 µM	> 100 µM	> 100 µM											
CCOC(=O)c1[nH]c(COC(C)=O)c2c1CCCCCCCCCC2	> 100 µM	> 100 µM	> 100 µM	> 100 µM	> 100 µM	> 100 µM	> 100 µM	> 100 µM	> 100 µM											
CCN1CCC(O)(c2ccc(Cl)cc2)C(C(=O)c2ccc(Cl)cc2)C1 (stereo not given)	> 100 µM	> 100 µM			> 100 µM	> 100 µM	> 100 µM	> 100 µM	> 100 µM											
COc1cccc(NC(=O)/C(Cc2nc3ccccc3nc2C)=N/NC(=O)C[n+]2ccccc2)c1	> 100 µM	> 100 µM	> 100 µM	> 100 µM		> 100 µM	> 100 µM	> 100 µM	> 100 µM											
O=c1c(O)c(-c2cc(O)c(O)c(O)c2)oc2cc(O)cc(O)c12	> 100 µM	44.8 µM	57.1 µM	71.8 µM	> 100 µM	> 100 µM	> 100 µM	> 100 µM										> 100		
COc1ccccc1NC(=O)CC(=O)N/N=C/c1ccc(N(CCC#N)S(=O)(=O)c2ccccc2)cc1		> 100 µM	> 100 µM	> 100 µM	> 100 µM	> 100 µM	> 100 µM	> 100 µM	> 100 µM											
Cn1cc2ccccc2c1-c1nc(F)nc(OCC(=O)[C@H]2CCC3[C@@H]4CCC5=CC(=O)CC[C@]5(C)C4[C@@H](O)C[C@@]32C)n1 (stereo not given in full)	> 54 µM	30.5 µM	36.5 µM	20.7 µM	36.6 µM	36.7 µM	37.8 µM	44.7 µM	48.4 µM											
OCC#Cc1ccccc1C#CCCCCCC#Cc1ccccc1C#CCO	44.8 µM	32.3 µM	38.9 µM	30.7 µM	33.3 µM	32.3 µM	33.8 µM	29.2 µM		16.8 µM	21.8 µM	15.9 µM	17.9 µM	17.1 µM	15.4 µM		19.8	39.8	24.1 µM	17.6 µM
O=C1c2ccccc2-c2c1c1ccccc1c(=O)n2CCCn1ccnc1	14.1 µM	7.72 µM	3.04 µM	> 100 µM	6.45 µM	2.29 µM	> 100 µM	> 100 µM		1.74 µM	1.35 µM	1.9 µM	0.791 µM	0.359 µM	5.71 µM		3.36	> 100	2.74 µM	1.83 µM
COc1cc2c(cc1OC)/C(=C\c1ccccc1N)C(=O)OC2		9.96 µM		27.2 µM	27.6 µM	32.2 µM	32.7 µM	55.4 µM	47.2 µM											
Cc1cc2c(C)nn(Cc3ccc(Cl)cc3)c2c(C#N)c1C		> 100 µM	> 100 µM	> 100 µM	95.1 µM	> 100 µM	> 100 µM		> 100 µM											
CC(C)(c1ccccc1)c1ccc(OC#N)cc1	> 100 µM	> 100 µM	> 100 µM	31.3 µM	> 100 µM	> 100 µM	98 µM	> 100 µM	> 100 µM											
NC(N)=NS(=O)(=O)c1ccc(Nc2c3ccccc3nc3c(C(=O)Nc4ccc(S(N)(=O)=O)cc4)cccc23)cc1	> 100 µM	> 100 µM		> 100 µM	> 100 µM	> 100 µM	> 100 µM	> 100 µM	> 100 µM											
COC(=O)Nc1nc2ccc(Br)cc2[nH]1	> 100 µM	> 100 µM	> 100 µM	> 100 µM	> 100 µM	> 100 µM	> 100 µM	> 100 µM	> 100 µM											
C=CCC1C(=O)CC2(C)CC(=O)C(CC=C)C12C (stereo not given)		> 100 µM	> 100 µM	> 100 µM	> 100 µM	> 100 µM	> 100 µM	> 100 µM	> 100 µM											
O=C(NC12CC3CC(CC(C3)C1)C2)C(=O)c1c[nH]c2ccccc12		25.8 µM		24.4 µM	28.8 µM	26.5 µM	36.6 µM	29.3 µM	28 µM											
CCN(CC)c1ccc(N=Nc2ccc(-c3nc4ccc[n+](C)c4o3)cc2)cc1	35.9 µM	23.7 µM	27.6 µM	22.3 µM	33.4 µM	22.6 µM	25.4 µM	24.8 µM												
CCN(CC)C(=O)C(C)n1cc(C)c(=O)[nH]c1=O (stereo not given)		> 100 µM		> 100 µM		> 100 µM	> 100 µM	> 100 µM	> 100 µM											
N#CC1CCCCCCCCCCC(=O)N(CCCl)C1=O (stereo not given)	> 100 µM	> 100 µM			> 100 µM	> 100 µM	> 100 µM	> 100 µM	> 100 µM											
